Test systems include HOP-62 NSCLC; SK-MEL-2 melanoma; NCI/ADR-RES ovarian; UO-31 renal; MDA-MB-231 breast; CCRF-CEM leukemia; A549 NSCLC; MALME-3M melanoma; SF-539 CNS; MOLT-4 leukemia.
What all share (assay): DTP human tumour cell line panel, 48 h

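Test compounds were applied to cells in 96-well plates for 48 hours at 5 doses. Here, GI50 denotes the concentration required for 50% inhibition of growth. The concentration for full growth arrest is given as TGI.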

Data on eight molecules can be found in PubChem BioAssay (NCI).

`COc1ccc(CN2c3ccccc3Sc3ccccc32)c(C(F)(F)F)c1`: the GI50 in the test on HOP-62 NSCLC was 0.604 µM; with SK-MEL-2 melanoma, 1.18 µM; in the test on NCI/ADR-RES ovarian it was 0.462 µM; with UO-31 renal it was 3.98 µM; in the test with MDA-MB-231 breast, 3.05 µM; in the test with CCRF-CEM leukemia, 0.454 µM. The GI50 with A549 NSCLC was 0.807 µM; in the test with MALME-3M melanoma, 21 µM; with SF-539 CNS it was 0.452 µM; in the test with MOLT-4 leukemia, 2.88 µM. In addition, the TGI with HOP-62 NSCLC is 35.6 µM; with SK-MEL-2 melanoma, 14.7 µM; with NCI/ADR-RES ovarian, 3.16 µM; in the test with UO-31 renal it was greater than 100 µM; in the test on MDA-MB-231 breast, 58.6 µM; in the test on CCRF-CEM leukemia, 26.5 µM. The TGI in the test with A549 NSCLC was 68.5 µM; in the test with MALME-3M melanoma, greater than 100 µM; in the test with SF-539 CNS, 3.89 µM; with MOLT-4 leukemia it was 43.4 µM.

On to `O=C(Nc1cccc(O)c1)c1ccc(NC2=C(Cl)C(=O)N(Cc3ccc(Cl)cc3Cl)C2=O)cc1`, for which the GI50 in the test with HOP-62 NSCLC is 8.44 µM; with SK-MEL-2 melanoma, 5.29 µM; in the test with NCI/ADR-RES ovarian it was 21.6 µM; in the test on UO-31 renal it was 1.91 µM; in the test on MDA-MB-231 breast it was 1.85 µM; with CCRF-CEM leukemia it was 0.244 µM. The GI50 is 15.7 µM with A549 NSCLC, 2.23 µM with MALME-3M melanoma, 6.32 µM with SF-539 CNS and 0.383 µM in the test on MOLT-4 leukemia. The TGI in the test with HOP-62 NSCLC is greater than 58.5 µM; with SK-MEL-2 melanoma it was 14.5 µM; in the test with NCI/ADR-RES ovarian it was 48.1 µM; in the test with UO-31 renal it was 3.75 µM; in the test on MDA-MB-231 breast, 4.05 µM; in the test with CCRF-CEM leukemia, 0.95 µM. Also, the TGI was found to be 31.7 µM in the test on A549 NSCLC, 5.75 µM in the test on MALME-3M melanoma, 11.8 µM with SF-539 CNS and 2.17 µM in the test with MOLT-4 leukemia.

`COc1ccc2c(c1)nc(C(=O)c1ccco1)c(C(F)(F)F)[n+]2[O-]`: the GI50 with HOP-62 NSCLC, in the test with SK-MEL-2 melanoma, in the test with NCI/ADR-RES ovarian, in the test with UO-31 renal, in the test with MDA-MB-231 breast and in the test on CCRF-CEM leukemia was greater than 100 µM each time. For the same molecule, the GI50 in the test with A549 NSCLC, in the test on MALME-3M melanoma, with SF-539 CNS and in the test on MOLT-4 leukemia was greater than 100 µM in each case. The TGI with HOP-62 NSCLC, in the test on SK-MEL-2 melanoma, in the test on NCI/ADR-RES ovarian, in the test on UO-31 renal, in the test with MDA-MB-231 breast and with CCRF-CEM leukemia was greater than 100 µM each time. The TGI in the test on A549 NSCLC, in the test with MALME-3M melanoma, in the test with SF-539 CNS and in the test on MOLT-4 leukemia was greater than 100 µM each time.

For `Cc1ccccc1NC(=O)c1sc2nc(C)c(C(=O)/C=C/c3ccccc3)cc2c1N`, the GI50 in the test with HOP-62 NSCLC is 1.15 µM; in the test on SK-MEL-2 melanoma, 1.81 µM; in the test with NCI/ADR-RES ovarian, 1.5 µM; in the test with UO-31 renal, 0.814 µM; in the test on MDA-MB-231 breast it was 1.8 µM; in the test on CCRF-CEM leukemia, 1.5 µM. The GI50 in the test with A549 NSCLC was 1.58 µM; in the test with MALME-3M melanoma it was 1.43 µM; in the test on SF-539 CNS it was 0.977 µM; with MOLT-4 leukemia it was 1.57 µM. The total growth inhibition concentration (TGI) is 2.7 µM with HOP-62 NSCLC; 8.59 µM in the test on SK-MEL-2 melanoma; greater than 50 µM in the test with NCI/ADR-RES ovarian; 1.53 µM with UO-31 renal; 11 µM in the test on MDA-MB-231 breast; greater than 50 µM in the test on CCRF-CEM leukemia. In addition, the TGI was 9.7 µM in the test with A549 NSCLC, 6.11 µM in the test on MALME-3M melanoma, 1.96 µM in the test on SF-539 CNS and greater than 50 µM in the test with MOLT-4 leukemia.

As for `Cc1ccc(S(=O)(=O)SC(C)(C)C)cc1`, the TGI in the test on HOP-62 NSCLC was greater than 100 µM; in the test on SK-MEL-2 melanoma it was greater than 88.3 µM; in the test with NCI/ADR-RES ovarian it was 90.4 µM; in the test with UO-31 renal, greater than 100 µM; in the test with MDA-MB-231 breast, 47.6 µM; in the test with CCRF-CEM leukemia, 39.2 µM. Besides, the TGI in the test on A549 NSCLC is greater than 100 µM; in the test on MALME-3M melanoma, greater than 62 µM; in the test with SF-539 CNS, greater than 77.8 µM; in the test with MOLT-4 leukemia, 41.5 µM.

In the case of `CC1C(C)N(C(=O)CCl)c2ccccc2N1C(=O)CCl` (stereo not given), the GI50 in the test with HOP-62 NSCLC was 1.62 µM; in the test with SK-MEL-2 melanoma, 1.66 µM; with NCI/ADR-RES ovarian, 0.784 µM; in the test on UO-31 renal, 0.168 µM; in the test on MDA-MB-231 breast, 1.18 µM; in the test on CCRF-CEM leukemia, 0.15 µM. The GI50 is 2.25 µM in the test with A549 NSCLC, 0.365 µM with MALME-3M melanoma, 1.4 µM in the test with SF-539 CNS and 0.243 µM with MOLT-4 leukemia. Also, the TGI is 3.52 µM in the test with HOP-62 NSCLC; 4.54 µM with SK-MEL-2 melanoma; 13.3 µM in the test on NCI/ADR-RES ovarian; 0.346 µM in the test on UO-31 renal; 3.6 µM with MDA-MB-231 breast; 0.629 µM in the test on CCRF-CEM leukemia. For the same molecule, the TGI with A549 NSCLC was 6.11 µM; in the test on MALME-3M melanoma it was 1.32 µM; in the test on SF-539 CNS it was 2.89 µM; in the test on MOLT-4 leukemia, 0.81 µM.

Regarding `COc1ccc2c(c1OC)CO[C@@H]2[C@H]1c2c(cc3c(c2OC)OCO3)CCN1S(=O)(=O)c1cn(C)cn1`, the GI50 in the test on HOP-62 NSCLC is 1.88 µM; in the test on SK-MEL-2 melanoma it was 2.17 µM; in the test with NCI/ADR-RES ovarian, 1.97 µM; in the test with UO-31 renal, 5.2 µM; in the test on MDA-MB-231 breast it was 4.49 µM; in the test on CCRF-CEM leukemia it was 0.944 µM. For the same molecule, the GI50 with A549 NSCLC was 1.99 µM; in the test on MALME-3M melanoma, 0.77 µM; with SF-539 CNS it was 1.57 µM; with MOLT-4 leukemia it was 3.84 µM. Moreover, the TGI in the test with HOP-62 NSCLC is greater than 100 µM; in the test on SK-MEL-2 melanoma, greater than 100 µM; in the test on NCI/ADR-RES ovarian, 8.35 µM; in the test on UO-31 renal it was greater than 100 µM; with MDA-MB-231 breast, greater than 100 µM; in the test on CCRF-CEM leukemia it was greater than 100 µM. Besides, the TGI with A549 NSCLC is greater than 100 µM; in the test with MALME-3M melanoma it was greater than 100 µM; with SF-539 CNS, 5.66 µM; in the test with MOLT-4 leukemia, greater than 100 µM.

With `CCOC(=O)Oc1cc2c(c(OC)c1OC)-c1ccc(OC)c(=O)cc1C(NC(C)=O)CC2` (stereo not given), the TGI is greater than 93.1 µM in the test on HOP-62 NSCLC; greater than 17.1 µM with SK-MEL-2 melanoma; greater than 57.9 µM in the test with NCI/ADR-RES ovarian; greater than 100 µM with UO-31 renal; greater than 90.2 µM in the test with MDA-MB-231 breast; greater than 21.5 µM in the test with CCRF-CEM leukemia. Further, the TGI with A549 NSCLC was greater than 100 µM; with MALME-3M melanoma it was greater than 100 µM; with SF-539 CNS it was 0.232 µM; with MOLT-4 leukemia, 22.9 µM.

One may read the GI50 as the concentration that inhibits growth by half. As usually defined, the TGI is the concentration giving total growth inhibition.
